Our source for the AC26 values is PubChem BioAssay AID624491 (Broad Institute, 2012).

Molecules are shown by their SMILES. Activity calls are given as the source filed them.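 The calls were made as follows: active = fitted curve crossing a set activation limit at or below the highest valid dose tested; inconclusive = flat fit at 30 to 70% activation, or poor fit; inactive = the rest, including signal decreases.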 A value given as a limit tells only on which side of the number the result lay.

This experiment has as its system D54 ERlucT glycosylation luciferase reporter, luminescence, 24 h. In words: blockers of NLG process in reporter cells – D54 ERlucT cells, luminescence, cherry-picks, dose response (AID 624491).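 Also: signal gain reflects blocked N-linked glycosylation of a luciferase reporter; actives raise luciferase signal so AC26 marks activators of the reporter.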

For `CCCCN(CC)CCCNC(=O)c1cc2c(=O)n(C)c3ccccc3c2n1C`, the AC26 is 3310 nM.
With `Cc1nc2ncccn2c1-c1csc(Nc2ccc(N(C)C)cc2)n1`, the AC26 is 31.5 nM.
Turning to `c1ccc(CN2CCC(Nc3nc(-c4cccnc4)nc4ccccc34)CC2)cc1`, the AC26 was 6130 nM.
Next, `CCN1C(=O)CCN(C2CCCC2)c2nc(Nc3ccc(C(=O)NC4CCN(C)CC4)cc3OC)ncc21`: 479 nM.
Regarding `CCN(CC)CCn1c2ccccc2c2cnc(N)c(C#N)c21`, the AC26 was 750 nM.
Then `O=C1c2ccccc2C(=O)N1Cc1cnc(N2CCN(c3ccccc3)CC2)s1`, with 7870 nM; and `CCN(CC)c1ccc(NC(=O)CC2Oc3ccccc3NC2=O)c(C)c1` (configuration not stated), with 11600 nM.
Then `COc1cc(NC(=O)c2ccc(-c3c(C)noc3C)c3ccoc23)cc(OC)c1OC`, with 3770 nM.
`COCCNc1nc(NCc2ccccc2)nc2ccsc12`: the AC26 was 136 nM.
Then `CN(C)CCNc1cccc2sc3ccc(O)cc3c(=O)c12`, with 500 nM; and `Cc1cccn2c(=O)c3cc(C(=O)NC4CCCC4)c(=N)n(CC4CCCO4)c3nc12` (configuration not stated), with 8180 nM.
Then `OC1CCCN(Cc2c3ccccc3cc3ccccc23)C1` (configuration not stated), with 8750 nM; and `CCOc1ccc2c(c1)OC(c1ccc(OC)cc1)(C(F)(F)F)NC2=O` (configuration not stated), with 1610 nM; and `Cc1ccc(S(=O)(=O)N2CCN(C(=O)COC(=O)c3cc([N+](=O)[O-])ccc3NCCO)CC2)c(C)c1`, with 2430 nM.
Next, `Cc1ccc(C(=O)N2CCC(C(=O)Nc3cccc([N+](=O)[O-])c3)CC2)cc1`: 804 nM; `COc1ccc(-c2nc3c(s2)CCc2onc(-c4ccc(OC)cc4)c2-3)cc1`: 14400 nM; `Cc1nc([N+](=O)[O-])c(Sc2nc3ccccc3[nH]2)n1Cc1ccccc1`: 8510 nM.
Consider `COc1ccc(/C=C/C(=O)Oc2cccc(/C=N/NC(=O)COc3c(C)cccc3C)c2)cc1`, for which the AC26 is 4770 nM.
In the case of `COc1cc(NC(=O)c2ccccc2F)ccc1NC(=O)c1cc2ccccc2o1`, the AC26 is 2390 nM.
Then `COc1cc2c(C#CCCO)c(-c3ccsc3)oc(=O)c2cc1OC`, with 226 nM; and `Cc1noc2ncnc(Sc3ccccc3Cl)c12`, with 12500 nM.
With `COc1ccc(C(=O)/C=C\c2ccc(NC(=O)c3cccs3)cc2)cc1`, the AC26 is 2000 nM.
Next, `NC(=O)CC(NC(=O)Cc1ccc(Br)cc1)c1ccc(NCC2CC2)c([N+](=O)[O-])c1` (configuration not stated): 6670 nM.
As to `NC(=O)c1ccc(NC(=O)CN2C(=O)NC(c3ccccc3)(c3ccccc3)C2=O)cc1`, the AC26 was 3410 nM.
`COc1ccc(-c2cc(C)no2)cc1S(=O)(=O)Nc1ccccc1`: the AC26 was 3740 nM.
Then `Cc1cc(C(=O)N/N=C/c2c3ccccc3cc3ccccc23)n[nH]1`, with 6680 nM.
Consider `CCOC(=O)c1ccc(/C=C2/C=C(c3ccccc3)N(c3ccc(Cl)c(C(=O)O)c3)C2=O)cc1`, for which the AC26 was 1840 nM.
Next, `COc1ccc(S(=O)Cc2ccc(C(=O)N3CCN(c4cccc(C)c4C)CC3)o2)cc1` (configuration not stated): 1430 nM; `O=S(=O)(Cc1ccc(Cl)cc1Cl)c1ccc(Cl)cc1`: 234 nM; `O=C(Nc1ccc2oc(-c3cccnc3)nc2c1)c1ccc([N+](=O)[O-])o1`: 1130 nM.
Then `Cc1ccc2nc3c(cc(C(N)=S)c(=N)n3CCCOC(C)C)c(=O)n2c1`, with 1140 nM; and `COC(=O)c1ccc(C)c(NC(=O)CN(c2cc(OC)ccc2OC)S(C)(=O)=O)c1`, with 641 nM.
As for `CSc1cccc(NC(=O)CCCOc2cc(=O)n(C)c3ccccc23)c1`, the AC26 was 4940 nM.
On to `COc1cc([C@@H]2c3cc4c(cc3[C@@H](OC)[C@H]3COC(=O)[C@H]23)OCO4)cc(OC)c1O`, for which the AC26 was 501 nM.
Next, `CN(C)CCOc1nc(-c2ccccc2)nc2c1oc1ccccc12`: 2700 nM; `O=C(N/N=C/c1cccc(Br)c1)c1ccc(N2CCCC2=O)cc1`: 6630 nM.
`O=C1NC[C@H](Cc2ccccc2)N(C[C@H]2CCCN2C[C@H](Cc2ccccc2)N2C[C@H](Cc3ccc(O)cc3)N(CCc3ccccc3)C(=O)C2=O)C1=O`: the AC26 was 5790 nM.
Next, `COc1ccc(C(=O)Nc2ccc3[nH]c(-c4cccc(OC)c4)cc(=O)c3c2)cc1`: 330 nM; `CC(C)c1c(C(=O)Nc2ccccc2)c(-c2ccccc2)c(-c2ccc(F)cc2)n1CC[C@@H](O)C[C@@H](O)CC(=O)O`: 68.2 nM; `COc1ccc(F)cc1-c1cc(NC(C)=O)c2ncc(-c3cc(OC)c(OC)c(OC)c3)n2c1`: 11300 nM.
For `C=CCn1c(SCc2c(C)noc2C)nc2sc3c(c2c1=O)CCC(C)C3` (configuration not stated), the AC26 was 2060 nM.
`CC(=O)Nc1cccc(-c2ccnc3c2CC(C(=O)NCc2cccc(Cl)c2)O3)c1` (configuration not stated): the AC26 is 9220 nM.
Next, `O=c1cc(-c2ccc(O)cc2)oc2cc(O)c(C3OC(CO)C(O)C(O)C3O)c(O)c12` (configuration not stated): 690 nM; `C/C(=N\NC(=O)c1c(Cl)c(C)nn1C)c1ccc(NC(=O)C2CCC2)cc1`: 3.55 nM; `COc1cc(C(=O)Nc2cc3c(cc2N2CCCCC2)n(C)c(=O)n3C)cc(OC)c1OC`: 3870 nM.
Then `Cc1ccc(C(=O)N/C(=C\c2cccs2)C(=O)NCCc2c[nH]c3ccccc23)cc1`, with 378 nM.
For the compound `Cn1c(=O)n(C)c2cc(NC(=O)CCl)ccc21`, the AC26 was 2090 nM.
Next, `CNc1ccc(Br)cc(C(=O)/C=C/c2ccc(OC)cc2)c1=O`: 2660 nM.
As to `CC(=O)Nc1cccc(-c2ccnc3c2CC(C(=O)NCCc2ccccc2)O3)c1` (configuration not stated), the AC26 was 1910 nM.
With `CC(C)(C)S(=O)(=O)N1C[C@@H]2CC/C=C\C/C(c3ccccc3)=C\2[C@H]1CCO`, the AC26 is 1050 nM.
Turning to `CCN(CC)CCOc1ccc2c(c1)C(=NNC(=O)c1ccccn1)c1cc(OCCN(CC)CC)ccc1-2`, the AC26 was 530 nM.
Then `COC(=O)c1cc(C(=O)c2c(C)cc3ccccn23)cc([N+](=O)[O-])c1`, with 1770 nM.
Next, `Cn1c(=O)c([N+](=O)[O-])c(-n2ccnc2)c2ccccc21`: 4170 nM.
Then `CC(C)c1ccc(NC(=O)CN2C(=O)NC3(CCCCCCC3)C2=O)cc1`, with 1210 nM.
For the compound `COc1cc(-c2noc(C)c2/C=C/c2ccc(N)cc2)cc(OC)c1OC`, the AC26 was 467 nM.
With `O=c1cc(-c2ccccc2)[nH]c2cc(F)ccc12`, the AC26 is 327 nM.
In the case of `CSc1nnc(-c2sccc2OCc2ccccc2)n1C`, the AC26 is 1950 nM.
Then `C/C(=N/NC(=O)c1cccs1)c1ccc(NC(=O)COc2ccc(Cl)cc2Cl)cc1`, with 6270 nM; and `CC(C)(C)n1nnnc1C(c1ccccc1)N1CCc2ccccc2C1` (configuration not stated), with 13900 nM; and `COc1ccc(-c2cc3ccccc3oc2=O)cc1NC(=S)NC(=O)c1ccc2c(c1)OCCO2`, with 3970 nM.
With `COc1ccccc1-n1cnc2cc(NCc3ccco3)ccc21`, the AC26 is 1510 nM.
Then `CCNc1ccc(C(=O)OCC)cc1NC(=O)c1cccc(N(C)C)c1`, with 3160 nM; and `Cc1cc(Sc2ccc([N+](=O)[O-])cn2)ccc1Br`, with 6940 nM.
Then `Cc1[nH]c2ccc(C(=O)N3CCN(c4cccc(Cl)c4)CC3)cc2c1C`, with 8650 nM.
Next, `COc1cccc(N2CCN(C(=O)c3[nH]c(C)c(C(C)=O)c3C)CC2)c1`: 1680 nM; `C[C@@]12C(=O)Nc3cc(Cl)ccc3C(=O)N1[C@H]1c3cc(Cl)ccc3OC[C@@H]1[C@@H]2c1ccccc1`: 4040 nM.
As for `CN(C)C(=O)c1cccc(-c2cnc3c(NC=O)cc(-c4ccccc4Cl)cn23)c1`, the AC26 was 6820 nM.
Next, `CC(=O)Nc1sc(NC(=O)c2ccccc2)nc1-c1cccs1`: 3450 nM.
Next, `Cn1c(-c2ccccc2)c(/C=N/NC(=O)c2cccnc2)c2ccccc21`: 247 nM; `Cn1c(SCC(=O)Nc2cccc(F)c2)nc2c([nH]c3ccccc32)c1=O`: 5420 nM; `N=c1c(C(=O)NCc2ccco2)cc2c(=O)n3ccccc3nc2n1CCc1ccccc1`: 707 nM.
As to `CN(C)C(CNC(=O)CSc1nc2sc3c(c2c(=O)n1C)CCCC3)c1ccccc1` (configuration not stated), the AC26 is 387 nM.
Then `O=c1c2c3c(sc2ncn1/N=C/c1ccc([N+](=O)[O-])o1)CCCC3`, with 447 nM.
Then `CCc1ccc2[nH]c3nc(SCC(=O)NNC(=O)c4ccc(C(C)(C)C)cc4)nnc3c2c1`, with 4110 nM; and `CCOc1cc(NC(=O)CCl)c(OCC)cc1NC(=O)CCl`, with 1690 nM.
Next, `O=c1cc(-c2ccccc2)nc2cc(-c3ccc(F)cc3)[nH]n12`: 4270 nM; `Cc1ccc(-c2nn3c(C)nnc3c3ccccc23)cc1S(=O)(=O)N1CCN(CCO)CC1`: 3870 nM; `COc1ccc2nc3n(c(=O)c2c1)-c1cc2ccccc2cc1C(=O)NC3Cc1ccccc1` (configuration not stated): > 19500 nM (inactive).
As for `CN1CCN(CC(=O)Nc2cc(N(C)C)nc3ccccc23)CC1`, the AC26 is 6650 nM.
`O=C(/C=C/c1ccc([N+](=O)[O-])cc1)/C=C/c1ccco1`: the AC26 was 1140 nM.
Next, `C[C@H](CO)N1C[C@H](C)[C@@H](CN(C)S(=O)(=O)c2cccs2)Oc2c(NC(=O)Cc3ccccc3)cccc2C1=O`: 2250 nM; `CCOc1cc(C)nc(NCc2ccccc2)n1`: 14300 nM; `CCC(=NCCc1c(C)[nH]c2ccc(OC(F)(F)F)cc12)C1=C(O)CC(c2ccccc2)CC1=O` (configuration not stated): 817 nM.
Then `O=C1Cc2c([nH]c3ccc([N+](=O)[O-])cc23)-c2ccccc2N1`, with 318 nM.
Next, `COc1cccc(C(=O)Nc2ccc(N3CCN(C(=O)c4ccco4)CC3)cc2)c1`: 10700 nM; `COc1ccc([C@@H]2[C@@H]3C(=O)N(C(C)(C)C)C(=O)[C@@H]3[C@]3(Cc4ccccc4)C(=O)N(c4cccc(C)c4)C(=O)N23)cc1`: 1300 nM; `CCc1ccc(C2c3[nH]c4ccccc4c3CCN2C(=O)c2ccc(=O)n(C)n2)cc1` (configuration not stated): 1330 nM.
For `Cc1ccc(COc2cccc(/C=N/NC(=O)c3nnn(-c4nonc4N)c3C)c2)cc1`, the AC26 is 1160 nM.
Then `CCCCCCC(=O)N(O)C1CC(=O)N(c2ccc(Br)cc2)C1=O` (configuration not stated), with 689 nM; and `COc1ccc(Nc2nc(N3CCCC3)nc3ccccc23)c(OC)c1`, with 1950 nM; and `COc1cc2c(C#N)c(N3CCc4ccccc4C3)nc(N)c2c(N)n1`, with 6220 nM.
With `Cc1cnc(C(=O)Nc2ccc(OC(F)(F)F)cc2)cn1`, the AC26 was 9150 nM.
